Measurements: patent publication US5256686A, “Phenylalkan(en)oic acid” (Ono Pharmaceutical Co., Ltd., priority 1989, dated 1993)

What follows are compounds tested against T1, human PMNL LTB4 receptor (Homo sapiens, UniProt Q15722) (assay: Binding affinity of 3H-LTB4 antagonist to human PMNL LTB4 receptor (inhibition of specific 3H-LTB4 binding)). Settings: 1 nM 3H-LTB4, human PMNLs, 4° C., 20 min.
T1 construct: endogenous in cells; host or cells: human polymorphonuclear leukocytes (PMNL), intact cells
T1 sequence (Q15722 whole entry): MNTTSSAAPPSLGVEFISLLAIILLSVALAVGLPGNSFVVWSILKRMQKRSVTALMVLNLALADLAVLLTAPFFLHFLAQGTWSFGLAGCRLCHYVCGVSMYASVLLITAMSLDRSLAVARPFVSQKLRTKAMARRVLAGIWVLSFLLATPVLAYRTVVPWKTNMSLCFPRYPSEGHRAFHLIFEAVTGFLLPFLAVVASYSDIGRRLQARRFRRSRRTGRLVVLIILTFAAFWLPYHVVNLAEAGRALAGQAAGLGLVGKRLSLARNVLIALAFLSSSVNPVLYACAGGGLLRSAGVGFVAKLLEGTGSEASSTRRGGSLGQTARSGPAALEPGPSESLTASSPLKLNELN
Description: Human PMNLS (1×10^7 cells) were incubated with 1 nM ^3 H-LTB4 in Hanks balanced salt solution (1 ml) at 4° C. for 20 min. in the presence or absence of increasing concentrations of unlabeled LTB4 or various compounds. Free ^3 H-LTB4 was separated from PMNLs-bound ligands by vacuum filteration through Whatman GF/B or C glass fiber filters. The filters were then washed rapidly 4 times with 2.5 ml of the ice-cold phosphate buffered saline. The radioactivity retained in the filter was determined by liquid scintillation counting. Specific binding was defined as the difference between total binding and binding in the presence of 3 μM LTB4 (nonspecific binding). The inhibitory effect of specific ^3 H-LTB4 binding was calculated from the following equation.
The percentage of inhibition (%)=100-(B1 /B0 ×100)
B1 : specific ^3 H-LTB4 binding in presence of antagonist
B0 : specific ^3 H-LTB4 binding in absence of antagonist

| IC50 | Structure (SMILES) |
| --- | --- |
| 1000 nM | CCCCCCCCCCCCOc1ccc(NC(=O)CCCC(=O)N(C)C)cc1CCC(=O)O [1 (c), 3-[1-n-dodecyloxy-4-(4-dimethylaminocarbonylbutanamido)benzen-2-yl]propionic acid] |
| 80 nM | CCCOc1ccc(/C=C/CCCCOc2ccc(NC(=O)CCCC(=O)N(C)C)cc2CCC(=O)O)cc1 [1 (e), 3-[1-[6-(4-n-propoxyphenyl)hex-5E-enyl]oxy-4-(4-dimethylaminocarbonylbutanamido)benzen-2-yl]propionic acid] |
| 50 nM | C=CCOc1ccc(/C=C/CCCCOc2ccc(NC(=O)CCCC(=O)N(C)C)cc2CCC(=O)O)cc1 [1 (f), 3-[1-[6-[4-(2-propenyl)oxyphenyl]hex-5E-enyl]oxy-4-(4-dimethylaminocarbonylbutanamido)benzen-2-yl]propionic acid] |
| 400 nM | CCCCCOc1ccc(/C=C/CCCCOc2ccc(NC(=O)CCCC(=O)N(C)C)cc2CCC(=O)O)cc1 [1 (i), 3-[1-[6-(4-n-pentyloxyphenyl)hex-5E-enyl]oxy-4-(4-dimethylaminocarbonylbutanamido)benzen-2-yl]propionic acid] |
| 200 nM | COc1ccc(CCCCCCOc2ccc(NC(=O)CCCC(=O)N(C)C)cc2CCC(=O)O)cc1 [1 (j), 3-[1-[6-(4-methoxyphenyl)-n-hexyl]oxy-4-(4-dimethylaminocarbonylbutanamido)benzen-2-yl]propionic acid] |
| 490 nM | COc1cccc(/C=C/CCCCOc2ccc(NC(=O)CCCC(=O)N(C)C)cc2CCC(=O)O)c1 [1 (m), 3-[1-[6-(3-methoxyphenyl)hex-5E-enyl]oxy-4-(4-dimethylaminocarbonylbutanamido)benzen-2-yl]propionic acid] |
| 70 nM | COc1ccc(/C=C/CCCCOc2ccc(NC(=O)CCCC(=O)N3CCc4ccccc43)cc2CCC(=O)O)cc1 [1 (n), 3-[1-[6-(4-methoxyphenyl)hex-5E-enyl]oxy-4-[4-(1-indolinyl)carbonylbutanamido]benzen-2-yl]propionic acid] |
| 50 nM | CSc1ccc(/C=C/CCCCOc2ccc(NC(=O)CCCC(=O)N(C)C)cc2CCC(=O)O)cc1 [1 (q), 3-[1-[6-(4-methylthiophenyl)hex-5E-enyl]oxy-4-(4-dimethylaminocarbonylbutanamido)benzen-2-yl]propionic acid] |
| 1100 nM | COc1ccc(/C=C/CCCCOc2ccc(NC(=O)CCCC(=O)N(C)C)cc2CCC(=O)O)cc1OC [1 (r), 3-[1-[6-(3,4-dimethoxyphenyl)hex-5E-enyl]oxy-4-(4-dimethylaminocarbonylbutanamido)benzen-2-yl]propionic acid] |
| 170 nM | Cc1ccc(/C=C/CCCCOc2ccc(NC(=O)CCCC(=O)N(C)C)cc2CCC(=O)O)cc1 [1 (s), 3-[1-[6-(4-methylphenyl)hex-5E-enyl]oxy-4-(4-dimethylaminocarbonylbutanamido)benzen-2-yl]propionic acid] |
| 220 nM | CN(C)C(=O)CCCC(=O)Nc1ccc(OCCCC/C=C/c2ccc(Cl)cc2)c(CCC(=O)O)c1 [1 (t), 3-[1-[6-(4-chlorophenyl)hex-5E-enyl]oxy-4-(4-dimethylaminocarbonylbutanamido)benzen-2-yl]propionic acid] |
| 80 nM | COc1ccc(/C=C/CCCCOc2ccc(NC(=O)c3cccc(C(=O)N(C)C)c3)cc2CCC(=O)O)cc1 [1 (u), 3-[1-[6-(4-methoxyphenyl)hex-5E-enyl]oxy-4-(3-dimethylaminocarbonylbenzamido)benzen-2-yl]propionic acid] |
| 200 nM | COc1ccc(/C=C/CCCCOc2ccc(NC(=O)CCCC(=O)O)cc2/C=C/C(=O)O)cc1 [2 (a), 3-[1-[6-(4-methoxyphenyl)hex-5E-enyl]oxy-4-(4-carboxylbutanamido)benzen-2-yl]-E-acrylic acid] |
| 200 nM | COc1ccc(/C=C/CCCCOc2ccc(NC(=O)c3ccccc3)cc2CCC(=O)O)cc1 [3 (a), 3-[1-[6-(4-methxoyphenyl)hex-5E-enyl]oxy-4-benzamidobenzen-2-yl]propionic acid] |
| 60 nM | COc1ccc(/C=C/CCCCOc2ccc(NC(=O)c3cccc(CO)c3)cc2CCC(=O)O)cc1 [4 (b), 3-[1-[6-(4-methoxyphenyl)hex-5E-enyl]oxy-4-(3-hydroxymethylbenzamido)benzen-2yl]propionic acid] |
| 300 nM | CCCCCC(O)/C=C/CCCCOc1ccc(NC(=O)CCCC(=O)N(C)C)cc1CCC(=O)O (stereo not shown) [5 (b), 3-[1-(5E-7-hydroxydodecenyl)oxy-4-dimethylaminocarbonylbutanamidobenzen-2-yl]propionic acid] |
| 700 nM | COc1ccc(CCC(O)/C=C/CCCCOc2ccc(NC(=O)CCCC(=O)N(C)C)cc2CCC(=O)O)cc1 (stereo not shown) [5 (c), 3-[1-[5E-7-hydroxy-9-(4-methoxyphenyl)nonenyl]oxy-4-dimethylaminocarbonylbutanamidobenzen-2-yl]propionic acid] |

| IC50 | Structure (SMILES) |
| --- | --- |
| 350 nM | CN(C)C(=O)CCCC(=O)Nc1ccc(OCCCC/C=C/C(O)C2CCCCC2)c(CCC(=O)O)c1 (stereo not shown) [5 (e), 3-[1-(5E-7-hydroxy-7-cyclohexylheptenyl)oxy-4-dimethylaminocarbonylbutanamidobenzen-2-yl]propionic acid] |
| 30 nM | COc1ccc(/C=C/CCCCOc2ccc(NS(C)(=O)=O)cc2CCC(=O)O)cc1 [6 (b), 3-[1-[6-(4-methoxyphenyl)hex-5E-enyl]oxy-4-methylsulfonylaminobenzen-2-yl]propionic acid] |
| 200 nM | COc1ccc(/C=C/CCCCOc2ccc(NS(=O)(=O)Cc3ccccc3)cc2CCC(=O)O)cc1 [6 (c), 3-[1-[6-(4-methoxyphenyl)hex-5E-enyl]oxy-4-benzylsulfonylaminobenzen-2-yl]propionic acid] |
| 30 nM | COc1ccc(/C=C/CCCCOc2ccc(NS(=O)(=O)CCCC(=O)N(C)C)cc2CCC(=O)O)cc1 [7 (a), 3-[1-[6-(4-methoxyphenyl)hex-5E-enyl]oxy-4-(3-dimethylaminocarbonyl-n-propyl)sulfonylaminobenzen-2-yl]propionic acid] |
| 1000 nM | COc1ccc(/C=C/CCCCOc2ccc(N(S(=O)(=O)Cc3ccccc3)S(=O)(=O)Cc3ccccc3)cc2CCC(=O)O)cc1 [10 (c), 3-[1-[6-(4-methoxyphenyl)hex-5E-enyl]oxy-4-bis(benzylsulfonyl)aminobenzen-2-yl]propionic acid] |
| 6 nM | COc1ccc(/C=C/CCCCOc2ccc(N3C(=O)CCS3(=O)=O)cc2CCC(=O)O)cc1 [12 (b), 3-[1-[6-(4-methoxyphenyl)hex-5E-enyl]oxy-4-(isothiazolidin-1,1,3-trione-2-yl)benzen-2-yl]propionic acid] |
| 150 nM | COc1ccc(CCCCCCOc2cccc(OCCCCC(=O)N(C)C)c2CCC(=O)O)cc1 [30 (b), 3-[1-[6-(4-methoxyphenyl)hexyl]oxy-3-(4-dimethylaminocarbonylbutyl)oxybenzen-2-yl]propionic acid] |
| 130 nM | COc1ccc(/C=C/CCCCOc2ccc(NC(=O)CCCC(=O)N3CCOCC3)cc2CCC(=O)O)cc1 [Example 1, 3-[1-[6-(4-methoxyphenyl)hex-5E-enyl]oxy-4-(5-oxo-5-morpholinopentanamido)benzen-2-yl]propionic acid] |
| 40 nM | COc1ccc(/C=C/CCCCOc2ccc(NC(=O)CCCC(=O)O)cc2CCC(=O)O)cc1 [Example 2, 3-[1-[6-(4-methoxyphenyl)hex-5E-enyl]oxy-4-(4-carboxylbutanamido)benzen-2-yl]propionic acid] |
| 170 nM | CCCCCCC(=O)Nc1ccc(OCCCC/C=C/c2ccc(OC)cc2)c(CCC(=O)O)c1 [Example 3, 3-[1-[6-(4-methoxyphenyl)hex-5E-enyl]oxy-4-heptanamidobenzen-2-yl]propionicacid] |
| 90 nM | COc1ccc(/C=C/CCCCOc2ccc(NC(=O)CCCCO)cc2CCC(=O)O)cc1 [Example 4, 3-[1-[6-(4-methoxyphenyl)hex-5E-enyl]oxy-4-(5-hydroxypentanamido)benzen-2-yl]propionic acid] |
| 20 nM | CCCCCCCCC(O)/C=C/CCCCOc1ccc(NC(=O)CCCC(=O)N(C)C)cc1CCC(=O)O (stereo not shown) [Example 5, 3-[1-(5E-7-hydroxypentadecenyl)oxy-4-(4-dimethylaminocarbonylbutanamido)benzen-2-yl]propionic acid] |
| 80 nM | COc1ccc(CCCCCCOc2ccc(NS(=O)(=O)c3ccc(C)cc3)cc2CCC(=O)O)cc1 [Example 6, 3-[1-[6-(4-methoxyphenyl)hexyl]oxy-4-(4-methylphenyl)sulfonylaminobenzen-2-yl]propionic acid] |
| 10 nM | COc1ccc(/C=C/CCCCOc2ccc(N(C(C)=O)S(C)(=O)=O)cc2CCC(=O)O)cc1 [Example 9, 3-[1-[6-(4-methoxyphenyl)hex-5E-enyl]oxy-4-(N-acetyl-N-mesyl)aminobenzen-2-yl]propionic acid] |
| 13 nM | COc1ccc(/C=C/CCCCOc2ccc(N(S(C)(=O)=O)S(C)(=O)=O)cc2CCC(=O)O)cc1 [Example 10, 3-[1-[6-(4-methoxyphenyl)hex-5E-enyl]oxy-4-dimesylaminobenzen-2-yl]propionic acid] |
| 45 nM | COc1ccc(/C=C/CCCCOc2ccc(N3C(=O)c4ccccc4C3=O)cc2CCC(=O)O)cc1 [Example 11, 3-[1-[6-(4-methoxyphenyl)hex-5E-enyl]oxy-4-phthalimidobenzen-2-yl]propionicacid] |
| 7 nM | COc1ccc(/C=C/CCCCOc2ccc(N3C(=O)CCCS3(=O)=O)cc2CCC(=O)O)cc1 [Example 12, 3-[1-[6-(4-methoxyphenyl)hex-5E-enyl]oxy-4-(perhydro-1,2-thiazin-1,1,3-trione-2-yl]benzen-2-yl]propionic acid] |
